Key:
CysLT1R = details: cited from earlier work; for pAct: CysLT1R, ChEMBL value, ref 29 (ChEMBL)
wild-type CysLT2R = molecular target: T1, wild-type CysLT2R (Homo sapiens, UniProt Q9NS75); experiment: IP1 production assay, antagonist mode, co-stimulation with EC80 LTD4; format: cell-based; details: for inhibition at 30 µM: HEK293, compound 30 µM, LTD4 at EC80, HEK293, wild-type CysLT2R, read-out: inhibition of LTD4-induced IP1 production, single-concentration screen; for Emax: HEK293, read-out: CysLT2R (LTD4) % Max Inhibition ± SEM
T1 construct: expressed in transfected cells; host or cells: HEK293 (ATCC CRL-1573), transient transfection with Lipofectamine 3000
T1 sequence (Q9NS75 1-346): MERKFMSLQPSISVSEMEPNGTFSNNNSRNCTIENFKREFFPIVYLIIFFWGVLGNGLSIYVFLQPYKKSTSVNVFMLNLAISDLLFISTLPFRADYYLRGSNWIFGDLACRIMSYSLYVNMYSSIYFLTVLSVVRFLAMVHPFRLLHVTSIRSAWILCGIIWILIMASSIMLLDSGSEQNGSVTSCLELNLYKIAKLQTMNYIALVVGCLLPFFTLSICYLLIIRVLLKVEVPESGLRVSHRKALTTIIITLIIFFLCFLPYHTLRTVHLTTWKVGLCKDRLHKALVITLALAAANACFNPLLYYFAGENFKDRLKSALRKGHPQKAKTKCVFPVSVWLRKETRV
Procedure: (§1) For this assay, we used the Cisbio IP-One kit as previously described. […] At 48 h post-transfection, the media was removed and the cells were washed with fresh Hank’s Balanced Salt Solution (HBSS). […] After compound stimulation, the cells were incubated for 1 h at 37 °C and stimulated with IP1-D2 and Ab-Crypt reagents in Lysis Buffer. The cells were then incubated at room temperature for an additional hour. […] Normalized data were plotted using either the three-parameter or four-parameter EC50/IC50 fits of GraphPad Prism 8 (San Diego). […] Data represent the means ± SEM of at least three independent experiments performed in quadruplicate.

wild-type CysLT1R = molecular target: T2, wild-type CysLT1R (Homo sapiens, UniProt Q9Y271); experiment: as above; format: cell-based
T2 construct: expressed in transfected cells; host or cells: HEK293 (ATCC CRL-1573), transient transfection with Lipofectamine 3000
T2 sequence (Q9Y271 1-337): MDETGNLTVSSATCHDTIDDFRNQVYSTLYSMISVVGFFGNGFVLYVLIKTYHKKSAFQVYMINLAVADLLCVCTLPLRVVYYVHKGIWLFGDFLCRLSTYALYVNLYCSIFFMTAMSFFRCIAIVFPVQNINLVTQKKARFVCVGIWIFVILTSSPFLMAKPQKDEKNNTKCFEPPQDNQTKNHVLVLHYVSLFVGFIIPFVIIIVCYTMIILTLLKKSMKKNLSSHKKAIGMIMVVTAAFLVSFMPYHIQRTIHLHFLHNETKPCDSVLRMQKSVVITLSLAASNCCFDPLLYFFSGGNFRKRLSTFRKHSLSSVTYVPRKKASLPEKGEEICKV
Procedure: as §1

| remaining activity at 30 µM (wild-type CysLT2R) | remaining activity at 30 µM (wild-type CysLT1R) | SMILES | also measured |
| --- | --- | --- | --- |
|  |  | CCCC(CCc1nnn[nH]1)Cc1ccc(OCc2ccc3ccccc3n2)cc1 (centres unmarked) [CHEMBL97356, CCCC(CCc1nnn[nH]1)Cc1ccc(cc1)OCc1ccc2ccccc2n1] | pAct (CysLT1R): 8.0 |
|  |  | CC(C)(O)c1ccc(CC[C@@H](SCC2(CC(=O)O)CC2)c2cccc(C=Cc3ccc4sc(Cl)c(Cl)c4n3)c2)cc1 [CHEMBL313187, CC(C)(c1ccc(CC[C@H](c2cccc(C=Cc3ccc4c(c(c(s4)[Cl])[Cl])n3)c2)SCC2(CC2)CC(O)=O)cc1)O] | pAct (CysLT1R): 9.4 |
|  |  | O=C(O)c1[nH]c2ccccc2c1C(=O)Nc1cccc(/C=C/c2ccc3ccc(Cl)cc3n2)c1 [CHEMBL3809164] | IC50 (CysLT1R; activity of the ligand from ChEMBL, ref ChEMBL, read-out: IC50 (CysLT1)): 35 nM |
|  |  | O=C(Nc1ccc2ccc(OCc3ccc4ccccc4n3)cc2c1)OCc1ccc(C(=O)O)cc1 [CHEMBL132167, C(c1ccc(cc1)C(O)=O)OC(Nc1ccc2ccc(cc2c1)OCc1ccc2ccccc2n1)=O] | pAct (CysLT1R): 8.0 |
|  |  | COc1ccc(NS(=O)(=O)C(F)(F)F)cc1C[C@H]1[C@@H](CO)c2cc(OCc3ccc4ccc(C)cc4n3)ccc2OC1(C)C [CHEMBL1214531, Cc1ccc2ccc(COc3ccc4c(c3)[C@H](CO)[C@H](Cc3cc(ccc3OC)NS(C(F)(F)F)(=O)=O)C(C)(C)O4)nc2c1] | pAct (CysLT1R): 8.4 |
|  |  | CC(C)(O)c1ccccc1CC[C@@H](SCC1(CC(=O)O)CC1)c1cccc(C=Cc2ccc3c(n2)CCS3)c1 [CHEMBL140058, CC(C)(c1ccccc1CC[C@H](c1cccc(C=Cc2ccc3c(CCS3)n2)c1)SCC1(CC1)CC(O)=O)O] | pAct (CysLT1R): 8.5 |
|  |  | COc1cc(C(=O)NS(=O)(=O)c2ccccc2C)ccc1Cc1cn(C)c2ccc(NC(=O)OC3CCCC3)cc12 [CHEMBL603, Cc1ccccc1S(NC(c1ccc(Cc2cn(C)c3ccc(cc23)NC(=O)OC2CCCC2)c(c1)OC)=O)(=O)=O] | pAct (CysLT1R): 11.4 |
|  |  | O=C(O)c1cc(Cl)cc2c(=O)cc(-c3cccc(C=Cc4ccc5ccccc5n4)c3)oc12 [CHEMBL416769, C(=Cc1ccc2ccccc2n1)c1cccc(c1)C1=CC(c2cc(cc(C(O)=O)c2O1)[Cl])=O] | pAct (CysLT1R): 8.0 |
|  |  | CN(C)C(=O)CCS[C@H](SCCC(=O)O)c1cccc(C=Cc2ccc3ccc(Cl)cc3n2)c1.[Na] [CHEMBL89340, CN(C)C(CCS[C@@H](c1cccc(C=Cc2ccc3ccc(cc3n2)[Cl])c1)SCCC(O)=O)=O.[Na]] | pAct (CysLT1R): 8.5 |
|  |  | COc1cccc2c(C=CC(=O)Nc3cccc(C=Cc4ccc5ccc(Cl)cc5n4)c3)c(C(=O)O)[nH]c12 [CHEMBL3810210, COc1cccc2c(C=CC(Nc3cccc(C=Cc4ccc5ccc(cc5n4)[Cl])c3)=O)c(C(O)=O)[nH]c12] | pAct (CysLT1R): 8.2 |
| 67.9% | 65.4% | NC(=O)c1ccc(CNC(=O)c2ccc(NC(=O)c3ccc(Cl)c(Cl)c3)cc2O)o1 [BRI-12418] |  |
| 64.2% | 91.7% | CC(C)NC(=O)Nc1ccc(C(=O)Nc2ccc(OCC(=O)O)c(Cl)c2)cc1 [BRI-12420] |  |
| 91.3% | 72% | Cn1c(Cn2cc(-c3nnco3)ccc2=O)nc2cc(Cl)ccc21 [BRI-12337] |  |
| 87.8% | 73.4% | O=C(O)c1cc(S(=O)(=O)NCCc2ccc(Cl)cc2)ccc1O [BRI-12352] |  |
| 78.1% | 77.1% | Cc1ccc2c(CC(=O)N3CCN(C(=O)c4ccc(C(N)=O)o4)CC3)c[nH]c2c1 [BRI-12462] |  |
| 91.8% | 76.8% | c1ccc(C(CNc2ccc3nnnn3n2)c2c[nH]c3ccccc23)cc1 (centres unmarked) [BRI-12355] |  |
| 35.6% | 89.5% | O=C(Nc1cnc2[nH]ccc2c1)c1cnc2c(c1)c(=O)[nH]c(=O)n2Cc1ccccc1 [BRI-12401] | inhibition at 30 µM (wild-type CysLT2R): ≥ 50%; Emax (wild-type CysLT2R): 19 ± 15% |
| 65.9% | 82.9% | O=C(NCCc1c[nH]c2cc(Cl)ccc12)c1ccc(NC2=NS(=O)(=O)c3ccccc32)cc1 [BRI-12478] |  |
| 40.6% | 70% | O=C(COC1CCCc2ccccc21)Nc1cccc(NC(=O)NCc2ccncc2)c1 (centres unmarked) [BRI-12405] | inhibition at 30 µM (wild-type CysLT2R): ≥ 50%; Emax (wild-type CysLT2R): 23 ± 6% |
| 53.8% | 69.4% | O=C(NCC1(O)CN(C(=O)c2ccc(=O)[nH]c2)C1)c1ccc2c(c1)CCC2 [BRI-12467] |  |
| 63.4% | 91.4% | O=C(O)CCC(NC(=O)c1cccc(C(F)(F)F)c1)c1ccccc1 (centres unmarked) [BRI-12412] |  |
| 70.9% | 88.3% | O=C(O)CNC(=O)c1ccc(NC(=O)CCc2cccc(F)c2F)cc1 [BRI-12441] |  |
| 88.7% | 62.6% | Cc1cccn2cc(-c3cccc(NC(=O)Cn4c(=O)[nH]c(=O)c5ccccc54)c3)nc12 [BRI-12438] |  |

| remaining activity at 30 µM (wild-type CysLT2R) | remaining activity at 30 µM (wild-type CysLT1R) | SMILES | also measured |
| --- | --- | --- | --- |
| 39% | 67.7% | Cc1ccc2ncc(C(=O)NC3CN(C(=O)c4cc(C(N)=O)cs4)C3)n2c1 [BRI-12466] | inhibition at 30 µM (wild-type CysLT2R): ≥ 50%; Emax (wild-type CysLT2R): 12 ± 6% |
| 95.5% | 66.4% | O=C1CCc2cc(NC(=O)C(=O)NCCc3ccc4c(c3)OCO4)ccc2N1 [BRI-12338] |  |
| 71% | 79.3% | C[S+]([O-])Cc1cccc(NC(=O)CC2(C(=O)O)Cc3ccccc3C2)c1 (centres unmarked) [BRI-12326] |  |
| 72% | 89.5% | O=C(NC(C(=O)O)c1ccccc1F)c1ccc(Cl)c(NC(=O)c2cccs2)c1 (centres unmarked) [BRI-12403] |  |
| 87.8% | 88.8% | O=C(O)CNC(=O)c1ccc(NC(=O)C2Cc3cc(F)ccc3O2)cc1 (centres unmarked) [BRI-12329] |  |
| 68.2% | 96.1% | Cc1cnnn1-c1ccc(NC(=O)c2cccc(NC(=O)CCCc3cccs3)c2)cc1 [BRI-12444] |  |
| 67.7% | 72.4% | O=C(Nc1ccc(C(=O)NC2CCCCC2)c(O)c1)c1ccc(F)c(S(=O)(=O)NC2CC2)c1 [BRI-12446] |  |
| 61.4% | 69.5% | O=C(Cn1c(=O)[nH]c(=O)c2ccccc21)N1CCc2[nH]c3ccc(F)cc3c2C1 [BRI-12341] |  |
| 91.6% | 77.3% | O=C(O)CCC1CCCCN1C(=O)Cc1c[nH]c2cc(F)ccc12 (centres unmarked) [BRI-12310] |  |
| 93.4% | 72.1% | NC(=O)COc1cccc(C(=O)NC(CC(=O)O)c2ccc(Cl)c(F)c2)c1 (centres unmarked) [BRI-12330] |  |
| 73.5% | 83.9% | O=C(O)CC(NS(=O)(=O)Cc1cccc2cccnc12)c1cnn(-c2ccccc2)c1 (centres unmarked) [BRI-12460] |  |
| 76.9% | 81% | COc1ccc(N(CCC(=O)O)S(=O)(=O)c2csc(-c3ccc(F)cc3)n2)cc1 [BRI-12432] |  |
| 92.1% | 77.3% | CC1CC1C(=O)NCCC(=O)Nc1cccc(Cl)c1-n1cncn1 (centres unmarked) [BRI-12336] |  |
| 77.4% | 76.5% | O=C(Cc1ccc(S(=O)(=O)CCO)cc1)Nc1ccc(-c2nc3cccc(Cl)c3s2)cc1 [BRI-12452] |  |
| 90.6% | 66.6% | O=C(NCC(F)(F)F)c1cccc(NC(=O)C2C3C=CC(C3)C2C(=O)O)c1 (centres unmarked) [BRI-12346] |  |
| 67.5% | 93.9% | O=C(O)C1CN(C(=O)Nc2cc(Br)ccn2)CCO1 (centres unmarked) [BRI-12436] |  |
| 50.7% | 88.2% | O=C(O)Cn1ccc(NC(=O)CNC(=O)Cc2cccc(F)c2)n1 [BRI-12471] |  |
| 80.4% | 70.8% | O=C1COc2cc(C(=O)N3CCC(c4cc5ccccc5[nH]4)CC3)c(Cl)cc2N1 [BRI-12416] |  |
| 67.7% | 86.6% | CC(C)(C)n1nnc(COC(=O)C2OCCc3ccccc32)n1 (centres unmarked) [BRI-12445] |  |
| 92.8% | 72.7% | O=C(Cn1ccc(=O)[nH]c1=O)Nc1cccc(C=Cc2ccccn2)c1 [BRI-12354] |  |
| 58.4% | 87.6% | COc1ccccc1C(=O)NCC1CN(C(=O)c2ccc3[nH]c(=O)n(C)c3c2)C1 [BRI-12461] |  |
| 96.8% | 72.5% | O=C(O)c1csc(S(=O)(=O)Nc2cccc(NC(=O)c3ccco3)c2)c1 [BRI-12344] |  |

Reference: article PMC7761830, “Structure-Based Virtual Screening of Ultra-Large Library Yields Potent Antagonists for a Lipid GPCR” (Biomolecules, 2020)
